Where two headings read alike, the source gives them in different places. One block for each molecule: values may come before it.
How the values were obtained:
[1] = Plasma pharmacokinetics in mice (LC/MS/MS); assay type: in vivo, Female BALB/c mice
Protocol: (§1) NU7026 was formulated in 10% DMSO and 5% Tween 20 in saline for i.p. and perorally (p.o.) administration at 20 and 50 mg kg^−1, respectively. For i.v. dosing at 5 mg kg^−1, NU7026 was formulated in 10% ethanol, 25% PEG 200 and 5% Tween 20 in saline. Control animals received the vehicle alone. Groups of three mice were injected per time point. Blood was collected by cardiac puncture following transient anaesthesia with halothane at 0.083, 0.25, 0.5, 1, 2, 4, 6, and 24 h post administration. Following centrifugation at 1500 g for 2 min to obtain plasma, samples were stored at −20°C until analysis. For urinary excretion studies, NU7026 was administered at 5 mg kg^−1 i.v. Urine was collected over 24 h in metabolic cages, and stored at −20°C until required.
Samples were analysed by liquid chromatography tandem mass spectrometry (LC/MS/MS). Chromatography was performed using a 50 × 4.6 mm ID 5 μm zwitterionic ABZ+ column (Supelco, Poole, Dorset, UK) and a gradient of 20% methanol (MeOH) in formic acid (0.1%) to 100% MeOH over 3 min, followed by an isocratic period at a flow rate of 0.6 ml min^−1. The total run time was 7 min. Detection by multiple reaction monitoring was performed on a TSQ700 triple quadrupole mass spectrometer equipped with an electrospray source and operated in positive ion mode (Thermoquest Ltd, Hemel Hempstead, Herts, UK). The heated capillary was maintained at 280°C and at a voltage of 4.5 kV. The following transitions were monitored: m/z (mass to charge ratio) 282.4 → m/z 171 for NU7026; m/z 262.3 → m/z 121 for NU7031; m/z 300 → m/z 256 for NU7119; m/z 300 → m/z 238 for NU7200. Calibration standards (20, 200, 500, 1000, 2000, 5000, 10 000, 20 000 and 50 000 nM) were prepared in blank mouse plasma. Following the addition of internal standard (30 μl of 2 μM solution of NU7031), plasma proteins were precipitated with 300 μl MeOH. Samples were then centrifuged and 20 μl of supernatant was injected onto the column. Peak area was plotted against concentration and unknown concentrations derived from the linear plot (analysed with Prism 2.01, Graphpad Software, San Diego, CA, USA).
Pharmacokinetic parameters were evaluated by noncompartmental analysis (model 200 for p.o. and i.p. administration and 201 for i.v. administration) using WinNonlin® Professional Version 3.2 (Pharsight Corporation, Mountain View, CA, USA). For simulation studies, parameters were derived from compartmental analysis.

[2] = Urinary excretion / metabolite profile in 24 h mouse urine; assay type: in vivo, Female BALB/c mice; conditions: mice, NU7026 5 mg kg^−1 i.v., LC/MS ion current
Protocol: as §1
For metabolism studies, LC/MS and LC/MS/MS were carried out on an LCQ ion trap instrument (ThermoFinnigan, UK). Separation was achieved using the same column as above. A linear gradient of 90% formic acid (0.1%) : 10% MeOH to 10% formic acid (0.1%) : 90% MeOH was run at 1 ml min^−1 from 0.5 to 6.5 min followed by 3.5 min isocratic. The capillary temperature was set to 200°C and the scan range from m/z 50 to m/z 850. For confirmation of metabolite structures, metabolites were spiked in control matrix and MS/MS fragmentation patterns and retention times were compared to those of biological samples.

[3] = tested on: CH1 human ovarian carcinoma cells; experiment: Clonogenic survival assay / radiosensitisation; assay type: cell-based; conditions: for cell count, % of the radiation control group: P<0.01
Protocol: These experiments were not designed as classical radiosensitisation experiments, that is, radiation dose finding study, but rather as experiments to investigate the minimum drug exposure required to observe radiosensitisation. CH1 human ovarian carcinoma cells were chosen as as a model because of their relative radiosensitivity (Kelland, personnal communication). They were grown as monolayers in Dubelcco's modified Eagle's medium (Invitrogen, Paisley, Scotland) augmented with 10% heat-inactivated fetal calf serum, 2 mM L-glutamine, minimal essential medium nonessential amino acid (Invitrogen) and 0.5 μg ml^−1 hydrocortisone in a 6.5% CO2/93.5% air atmosphere.
Cells were seeded at 1000 per 10 ml into […] flasks and left to attach overnight. Each group consisted of triplicate flasks. Following the addition of NU7026 (10 μM) or dimethyl sulphoxide (DMSO) solvent control for 24 h (final concentration of DMSO was 0.5%), cells were irradiated with a cobalt source (^60Co) for 3 min and 9 s at a distance of 40 cm to give a total dose of 2 Gy, or 2 min and 49 s at a distance of 30 cm to give a final dose of 3 Gy, or 6 min and 18 s at a distance of 40 cm to give a total dose of 4 Gy. Control cells were not treated with either drug or ionising radiation. Group 2 cells were treated with NU7026 only and Group 3 cells were irradiated only. Groups 4–7 were treated with NU7026 and irradiated with 2, 3 or 4 Gy. The drug was washed off by aspiration of the medium and rinsing with 10 mM phosphate-buffered saline (PBS) 2 h (Group 4), 4 h (Group 5), 6 h (Group 6) and 24 h (Group 7) after exposure. Following the addition of drug-free medium, cells were left to grow until colonies were visible. Colonies were then counted after 9 days and expressed as a percentage of controls. The doubling time of the cells was approximately 16 h.

[4] = biological target: ataxia telangiectasia mutated kinase (ATM); parameters: method as in Veuger et al, 2003, 2004; Griffin et al 2005; conditions: ref Veuger et al, 2003, 2004; Griffin et al 2005; cited from earlier work
[5] = tested on: ataxia telangiectasia and rad 3-related kinases (ATR); parameters: method as in Veuger et al, 2003, 2004; Griffin et al 2005; conditions: ref Veuger et al, 2003, 2004; Griffin et al 2005; cited from earlier work
[6] = Solubility (for constant infusion with osmotic minipumps); assay type: physicochemical; conditions: for dosing by constant infusion with osmotic minipumps
[7] = biological target: phosphoinositide 3-kinase; parameters: method as in Veuger et al, 2003, 2004; Griffin et al 2005; conditions: ref Veuger et al, 2003, 2004; Griffin et al 2005; cited from earlier work
DNA-PK = DNA-PK (Homo sapiens, UniProt P78527); experiment: DNA-PK inhibition; assay type: biochemical; conditions: stated in results, no method or reference given; read-out: IC50 inhibiting DNA-PK
[8] = Table 2: parent and metabolites in plasma after NU7026 at 5 mg kg^−1 i.v. to mice
[9] = Table 3: each compound at 20 mg kg^−1 i.p. to mice, plasma
[10] = female, BALB/c, mouse, plasma, ip, 20 mg/kg, Table 3: each compound at 20 mg kg^−1 i.p. to mice, plasma

Compound: O=c1cc(NCCOCCO)oc2c1ccc1ccccc12 [NU7200, 2-[2-(2-hydroxyethoxy)-ethylamino]-benzo[H]chromen-4-one]
AUC last [1, 8]: 143 nmol·L/h | level in 24 h urine samples [2]: significant amounts

Compound: C[C@@H]1CN(c2cc(=O)n3ccc4ccccc4c3n2)C[C@H](C)O1 [NU7107, 2-((2S,6R)-2,6-dimethylmorpholin-4-yl)-pyrimido[2,1-a]isoquinolin-4-one]
IC50 (DNA-PK): > 10 µM | AUC last [1, 9]: 12165 nmol·L/h | Cl obs. [1, 9]: 0.11 L/h | Vd [1, 9]: 0.12 L | half-life ([1]; female, BALB/c, mouse, ip, Table 3: each compound at 20 mg kg^−1 i.p. to mice, plasma): 47.4 min | Tmax ([1]; female, BALB/c, mouse, ip, Table 3: each compound at 20 mg kg^−1 i.p. to mice, plasma, read-out: Tmax): 15 min | Cmax [1, 10]: 10.4 µM | decrease in plasma clearance compared with NU7026 ([1]; mice, 20 mg kg^−1 i.p.): four-fold | plasma level 6 h post administration ([1]; mice, 20 mg kg^−1 i.p.): still detectable

Continued, in another order:

AUC last [1, 8]: 414 nmol·L/h | level in 24 h urine samples [2]: significant amounts
Compound: O=c1cc(N(CCO)CCO)oc2c1ccc1ccccc12 [NU7199, 2-[bis-(2-hydroxyethyl)-amino]-benzo[H]chromen-4-one]

level in 24 h urine samples [2]: significant amounts
Compound: O=c1cc(N2CCOC(O)C2)oc2c1ccc1ccccc12 (centres unmarked) [M1]

AUC last [1, 8]: 3616 nmol·L/h | Cl obs. [1, 9]: 0.44 L/h | Vd [1, 9]: 0.55 L | t1/2 [1, 9]: 52.2 min | half-life ([1]; female, BALB/c, mouse, ip, mice, 20 mg kg^−1 i.p., plasma): 52.2 min | Tmax ([1]; female, BALB/c, mouse, ip, mice, 20 mg kg^−1 i.p., plasma, read-out: Tmax): 4.98 min | half-life ([1]; female, BALB/c, mouse, iv, mice, 5 mg kg^−1 i.v., plasma): 73.2 min | Tmax ([1]; female, BALB/c, mouse, iv, mice, 5 mg kg^−1 i.v., plasma, read-out: Tmax): 0 min | bioavailability ([1]; female, BALB/c, mouse, plasma, intraperitoneal, mice, i.p. 20 mg kg^−1, assuming linear i.v. pharmacokinetics): 20% | Cmax [1, 10]: 5.12 µM | Cmax ([1]; female, BALB/c, mouse, plasma, ip, 20 mg/kg, mice, 20 mg kg^−1 i.p., noncompartmental): 7.36 µM | Cmax ([1]; female, BALB/c, mouse, plasma, iv, 5 mg/kg, mice, 5 mg kg^−1 i.v., noncompartmental): 5.12 µM | clearance ([1]; female, BALB/c, mouse, plasma, iv, 5 mg/kg, mice, 5 mg kg^−1 i.v., plasma, read-out: Cl obs. (converted)): 1.5 mL/min | clearance ([1]; female, BALB/c, mouse, plasma, iv, 5 mg/kg, mice, 5 mg kg^−1 intravenous (abstract), read-out: plasma clearance (converted)): 1.8 mL/min | Vd ([1]; female, BALB/c, mouse, plasma, iv, mice, 5 mg kg^−1 i.v., based on the elimination phase, read-out: Vd): 0.16 L | Cmax ([1]; female, BALB/c, mouse, plasma, po, 50 mg/kg, mice, 50 mg kg^−1 p.o., noncompartmental): 2.23 µM | Cmax ([1]; female, BALB/c, mouse, plasma, po, 50 mg/kg, mice, p.o. 50 mg kg^−1 (discussion)): < 2.5 µM | half-life ([1]; female, BALB/c, mouse, po, mice, 50 mg kg^−1 p.o., plasma): 88.8 min | Tmax ([1]; female, BALB/c, mouse, mice, oral 50 mg kg^−1, plasma, read-out: time of maximum concentration after administration): 60 min | AUC last ([1]; mice, 5 mg kg^−1 i.v., plasma): 3616 nM l h^−1 | Vd ([1]; mice, 20 mg kg^−1 i.p., based on the elimination phase): 0.55 L | AUC last ([1]; mice, 20 mg kg^−1 i.p., plasma): 2940 nM l h^−1 | Cl obs. ([1]; mice, 20 mg kg^−1 i.p., plasma): 0.44 L/h | Vd ([1]; mice, 50 mg kg^−1 p.o., based on the elimination phase): 1.34 L | AUC last ([1]; mice, 50 mg kg^−1 p.o., plasma): 5191 nM l h^−1 | Cl obs. ([1]; mice, 50 mg kg^−1 p.o., plasma): 0.63 L/h | plasma level at 4 h post administration ([1]; mice, i.v. 5 mg kg^−1): undetectable | time compound levels were above 10 μM ([1]; mice, i.v. administration, plasma): less than 1 h | maximum concentration ([1]; mice, oral 50 mg kg^−1, plasma): 2.2 µM | oral bioavailability ([1]; mice, p.o. 50 mg kg^−1 (abstract prints 20 mg kg^−1), based on linear i.v. pharmacokinetics): 15% | solubility [6]: insufficient solubility
Compound: O=c1cc(N2CCOCC2)oc2c1ccc1ccccc12 [NU7026, 2-(morpholin-4-yl)-benzo[H]chromen-4-one]
cell survival, % of the solvent-treated group ([3]; 10 μM NU7026 combined with 2 Gy radiation): 15% | cell survival, % of the solvent-treated group ([3]; 10 μM NU7026 combined with 3 Gy radiation): 9% | cell survival, % of the solvent-treated group ([3]; 10 μM NU7026 combined with 4 Gy radiation): 1% | radiosensitisation vs radiation alone ([3]; 2 h treatment with 10 μM NU7026 + 3 Gy, t test P>0.1): no significant difference | cell count, % of the radiation control group ([3]; 4 h exposure to 10 μM NU7026 + 3 Gy): 61% | cell count, % of the radiation control group ([3]; 6 h exposure to 10 μM NU7026 + 3 Gy): 47% | cell count, % of the radiation control group ([3]; 24 h exposure to 10 μM NU7026 + 3 Gy): 13% | activity at 10 µM ([3]; Homo sapiens, Ovarian carcinoma cell, NU7026 alone, 10 μM for 24 h, no radiation, read-out: surviving fraction, % of control cells): 91 ± 13% | IC50 [4]: > 100 µM | IC50 [5]: > 100 µM | IC50 [7]: 13 µM

Reference: PMC2361671, “Preclinical pharmacokinetics and metabolism of a novel prototype DNA-PK inhibitor NU7026” (British Journal of Cancer, 2005)
